{"source": "PubChem BioAssay (NCI)", "assay_in_all_cases": "NCI tumour cell line growth inhibition, 48 h", "key": {"RXF 393 renal": {"system": "RXF 393 renal"}, "SNB-78 CNS": {"system": "SNB-78 CNS"}, "BT-549 breast": {"system": "BT-549 breast"}, "MDA-N": {"system": "MDA-N"}, "786-0 renal": {"system": "786-0 renal"}, "XF 498 CNS": {"system": "XF 498 CNS"}, "P388 leukemia": {"system": "P388 leukemia"}, "SN12K1 renal": {"system": "SN12K1 renal"}, "P388/ADR leukemia": {"system": "P388/ADR leukemia"}}, "note": "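Following 48 hours of exposure in 96-well plates, responses at five concentrations were used to interpolate endpoints linearly. GI50 = concentration required for 50% inhibition of growth. TGI marks complete inhibition of growth.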", "data": [{"smiles": "CC(C)c1cccc(C(C)C)c1NC(=S)Nc1ccccc1", "values": [{"measurement": "TGI", "setting": "RXF 393 renal", "value": "> 100", "unit": "µM"}, {"measurement": "TGI", "setting": "SNB-78 CNS", "value": "> 100", "unit": "µM"}]}, {"smiles": "CCCCCCCCCCCCCCCc1ccc(C(=O)C[n+]2ccccc2)cc1", "values": [{"measurement": "GI50", "setting": "BT-549 breast", "value": 2.88, "unit": "µM"}, {"measurement": "TGI", "setting": "BT-549 breast", "value": 12.3, "unit": "µM"}]}, {"smiles": "Nc1cccc2cc(S(=O)(=O)Nc3ccc(C(=O)O)cc3)ccc12", "values": [{"measurement": "TGI", "setting": "BT-549 breast", "value": "> 100", "unit": "µM"}, {"measurement": "TGI", "setting": "MDA-N", "value": "> 100", "unit": "µM"}, {"measurement": "TGI", "setting": "RXF 393 renal", "value": "> 100", "unit": "µM"}, {"measurement": "TGI", "setting": "786-0 renal", "value": "> 100", "unit": "µM"}]}, {"smiles": "N=C(N)c1ccc(-c2ccc(-c3ccccc3)o2)cc1", "values": [{"measurement": "GI50", "setting": "BT-549 breast", "value": 13.1, "unit": "µM"}, {"measurement": "TGI", "setting": "BT-549 breast", "value": 39.9, "unit": "µM"}]}, {"smiles": "CCN(CC)CCSc1nc2c([N+](=O)[O-])cccc2[nH]1", "values": [{"measurement": "TGI", "setting": "XF 498 CNS", "value": "> 100", "unit": "µM"}, {"measurement": "TGI", "setting": "RXF 393 renal", "value": "> 100", "unit": "µM"}, {"measurement": "TGI", "setting": "SNB-78 CNS", "value": "> 100", "unit": "µM"}]}, {"smiles": "O=C(Nc1ccc(-n2cc(-c3ccncc3)c(-c3ccc(O)c(Cl)c3)n2)cc1)c1ccc(Cl)c(Cl)c1", "values": [{"measurement": "GI50", "setting": "RXF 393 renal", "value": 490, "unit": "nM"}, {"measurement": "TGI", "setting": "RXF 393 renal", "value": 1.1, "unit": "µM"}]}, {"smiles": "CSc1nc(NC2OC(CO)C(O)C(O)C2O)c(N)c(=O)n1C", "note": "(centres undefined)", "values": [{"measurement": "TGI", "setting": "XF 498 CNS", "value": "> 100", "unit": "µM"}, {"measurement": "TGI", "setting": "P388 leukemia", "value": "> 100", "unit": "µM"}, {"measurement": "TGI", "setting": "SN12K1 renal", "value": "> 100", "unit": "µM"}, {"measurement": "TGI", "setting": "P388/ADR leukemia", "value": "> 100", "unit": "µM"}, {"measurement": "TGI", "setting": "RXF 393 renal", "value": "> 100", "unit": "µM"}, {"measurement": "TGI", "setting": "SNB-78 CNS", "value": "> 100", "unit": "µM"}]}, {"smiles": "CC(C)=CCC/C(C)=C/CC/C(C)=C/C(O)c1ccccc1", "note": "(centres undefined)", "values": [{"measurement": "TGI", "setting": "SNB-78 CNS", "value": 68, "unit": "µM"}]}, {"smiles": "NC(=O)OCc1c(O)c2c(c(O)c1COC(N)=O)C(=O)C=CC2=O", "values": [{"measurement": "TGI", "setting": "SNB-78 CNS", "value": "> 100", "unit": "µM"}]}, {"smiles": "CNC1=C(C)C(=O)C2=C(C1=O)C(COC(N)=O)C1(OC)C3NC3CN21", "note": "(centres undefined)", "values": [{"measurement": "TGI", "setting": "MDA-N", "value": 5.65, "unit": "µM"}]}]}
